What was measured:
hSSTR2 vs. hSSTR4 = test: Selectivity for inhibition of cAMP via hSSTR2 vs. hSSTR4; format: cell-based, human
From the text: (§1) General overview: All five SSTR subtypes are Gi coupled G-protein coupled receptors (GPCRs) that lead to decreases in intracellular cyclic AMP (cAMP) when activated by an agonist. Therefore, measurement of intracellular cAMP levels can be used to assess whether compounds of the invention are agonists of SSTR subtypes (John Kelly, Troy Stevens, W. Joseph Thompson, and Roland Seifert, Current Protocols in Pharmacology, 2005, 2.2.1-2.2). One example of an intracellular cAMP assay is described below.
(§2) Four days prior to the assay, 5,000 Chinese hamster ovary cells (CHO-K1, ATCC # CCL-61) stably expressing the human somatostatin receptor subtype 2 are plated in each well of a 96-well tissue culture-treated plate in Ham's F12 growth media (ThermoFisher #10-080-CM) supplemented with 10% donor bovine serum (Gemini Bio-Products #100-506), 100 U/mL penicillin; 100 ug/mL streptomycin; 2 mM L-glutamine (Gemini Bio-Products #400-110) and 0.2 mg/mL hygromycin B (GoldBio #31282-04-9). The cells are cultured at 37° C., 5% CO2 and 95% humidity. On the day of the assay, the media is aspirated and the cells are treated with 50 μL of 1.6 μM NKH477 (Sigma # N3290) plus various dilutions of compounds of the invention in assay buffer [1× Hank's Balanced Salt Solution (ThermoFisher # SH3058802), 0.5 mM HEPES pH 7.4, 0.1% bovine serum albumin, 0.2 mM 3-Isobutyl-1-methylxanthine (IBMX, VWR #200002-790)]. The cells are incubated for 20 minutes at 37° C. (the final concentration of the compounds of the invention are typically 0-10,000 nM). The cells are treated with 50 μL of lysis buffer (HRTF cAMP kit, Cisbio). The lysate is transferred to 384-well plates and cAMP detection and visualization antibodies are added and incubated for 1-24 hours at room temperature. The time-resolved fluorescent signal is read with a Tecan M1000Pro multiplate reader. The intracellular cAMP concentrations are calculated by regression to a standard curve and are plotted vs. the concentration of the compounds of the invention and the EC50 of the compounds are calculated using standard methods. All data manipulations are in GraphPad Prism v6.

[1] = biological target: human SST2 receptor (SSTR2) (Homo sapiens (Human), UniProt P30874); test: cAMP assay: inhibition of cAMP via human SST2 receptor in CHO-K1 cells; format: cell-based; settings: CHO-K1 cells stably expressing human SSTR2, NKH477 stimulated
From the text: as §1, §2

Sequence of human SST2 receptor (SSTR2) (P30874 whole entry): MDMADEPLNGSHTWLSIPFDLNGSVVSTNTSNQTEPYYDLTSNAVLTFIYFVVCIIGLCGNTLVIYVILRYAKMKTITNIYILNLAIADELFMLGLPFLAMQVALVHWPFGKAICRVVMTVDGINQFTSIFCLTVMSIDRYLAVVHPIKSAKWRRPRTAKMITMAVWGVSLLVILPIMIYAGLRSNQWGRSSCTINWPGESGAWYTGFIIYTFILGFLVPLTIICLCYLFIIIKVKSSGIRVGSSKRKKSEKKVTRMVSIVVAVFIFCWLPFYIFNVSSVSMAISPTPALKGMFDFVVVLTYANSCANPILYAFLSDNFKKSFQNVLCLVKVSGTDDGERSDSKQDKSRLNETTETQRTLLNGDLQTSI

## COc1cc(C#N)cc2[nH]c(-c3c(N)ncc(-c4cc(C)cc(F)c4)c3N3CCC(N)CC3)nc12 [Compound 1-1, 2-[2-amino-4-(4-aminopiperidin-1-yl)-5-(3-fluoro-5-methylphenyl)pyridin-3-yl]-4-methoxy-1H-1,3-benzodiazole-6-carbonitrile]
hSSTR2 vs. hSSTR4; Table B
  hSST4/hSST2 (ratio): a (a = above 50,)
[1]
  EC50: < 0.1 nM

## COc1cc(C#N)cc2[nH]c(-c3c(N)ncc(-c4cc(F)cc(Cl)c4)c3N3CCC(N)CC3)nc12 [Compound 1-2, 2-[2-amino-4-(4-aminopiperidin-1-yl)-5-(3-chloro-5-fluorophenyl)pyridin-3-yl]-4-methoxy-1H-1,3-benzodiazole-6-carbonitrile]
[1]
  EC50: 0.1 to 1 nM

## COc1cc(C#N)cc2nc(-c3c(N(C)C)ncc(-c4cc(C)cc(F)c4)c3N3CCC(N)CC3)[nH]c12 [Compound 1-3, 2-[4-(4-aminopiperidin-1-yl)-2-(dimethylamino)-5-(3-fluoro-5-methylphenyl)pyridin-3-yl]-4-methoxy-1H-1,3-benzodiazole-6-carbonitrile]
[1]
  EC50: ≥ 1 nM

## COC(=O)c1ncc(-c2cc(C)cc(F)c2)c(N2CCC(N)CC2)c1-c1nc2cc(F)cc(OC)c2[nH]1 [Compound 2-1, methyl 4-(4-aminopiperidin-1-yl)-3-(6-fluoro-4-methoxy-1H-1,3-benzodiazol-2-yl)-5-(3-fluoro-5-methylphenyl)pyridine-2-carboxylate]
hSSTR2 vs. hSSTR4; Table B
  hSST4/hSST2 (ratio): d (d = between 1 and 2.5;)
[1]
  EC50: 0.1 to 1 nM

## COc1cc(F)cc2nc(-c3c(C#N)ncc(-c4cc(C)cc(F)c4)c3N3CCC(N)CC3)[nH]c12 [Compound 2-2, 4-(4-aminopiperidin-1-yl)-3-(6-fluoro-4-methoxy-1H-1,3-benzodiazol-2-yl)-5-(3-fluoro-5-methylphenyl)pyridine-2-carbonitrile]
[1]
  EC50: 0.1 to 1 nM

## COc1cc(F)cc2nc(-c3c(C(N)=O)ncc(-c4cc(C)cc(F)c4)c3N3CCC(N)CC3)[nH]c12 [Compound 2-3, 4-(4-aminopiperidin-1-yl)-3-(6-fluoro-4-methoxy-1H-1,3-benzodiazol-2-yl)-5-(3-fluoro-5-methylphenyl)pyridine-2-carboxamide]
[1]
  EC50: 0.1 to 1 nM

## Cc1cc(F)cc(-c2cnc(N)c(-c3nc4c(F)cc(F)cc4[nH]3)c2N2CC[C@@H]3NCCO[C@H]3C2)c1 [Compound 3-1, 4-[(4αS,8αS)-octahydro-1H-pyrido[3,4-b][1,4]oxazin-6-yl]-3-(4,6-difluoro-1H-1,3-benzodiazol-2-yl)-5-(3-fluoro-5-methylphenyl)pyridin-2-amine]
[1]
  EC50: < 0.1 nM

## Nc1ncc(-c2cc(F)cc(F)c2)c(N2CCC3OCCNC3C2)c1-c1nc2c(F)cc(F)cc2[nH]1 (centres unmarked) [Compound 3-2, 4-[(4αS,8αS)-octahydro-1H-pyrido[3,4-b][1,4]oxazin-6-yl]-3-(4,6-difluoro-1H-1,3-benzodiazol-2-yl)-5-(3,5-difluorophenyl)pyridin-2-amine]
[1]
  EC50: 0.1 to 1 nM

## CNc1ncc(-c2cc(F)cc(F)c2)c(N2CC[C@@H]3NCCO[C@H]3C2)c1-c1nc2c(F)cc(F)cc2[nH]1 [Compound 3-6, 4-[(4αS,8αS)-octahydro-1H-pyrido[3,4-b][1,4]oxazin-6-yl]-3-(4,6-difluoro-1H-1,3-benzodiazol-2-yl)-5-(3,5-difluorophenyl)-N-methylpyridin-2-amine]
[1]
  EC50: 0.1 to 1 nM

## Nc1ncc(-c2cc(F)cc(Cl)c2)c(N2CC[C@@H]3NCCO[C@H]3C2)c1-c1nc2c(F)cc(F)cc2[nH]1 [Compound 3-7, 4-[(4αS,8αS)-octahydro-1H-pyrido[3,4-b][1,4]oxazin-6-yl]-5-(3-chloro-5-fluorophenyl)-3-(4,6-difluoro-1H-1,3-benzodiazol-2-yl)pyridin-2-amine]
[1]
  EC50: < 0.1 nM

## COc1cc(F)cc(-c2cnc(N)c(-c3nc4c(F)cc(F)cc4[nH]3)c2N2CCC3OCCNC3C2)c1 (centres unmarked) [Compound 3-8, 4-[(4αS,8αS)-octahydro-1H-pyrido[3,4-b][1,4]oxazin-6-yl]-3-(4,6-difluoro-1H-1,3-benzodiazol-2-yl)-5-(3-fluoro-5-methoxyphenyl)pyridin-2-amine]
[1]
  EC50: < 0.1 nM

## COc1cc(F)cc2[nH]c(-c3c(N)ncc(-c4cccc(F)c4)c3N3CC[C@@H]4NCCO[C@H]4C3)nc12 [Compound 3-9, 4-[(4αS,8αS)-octahydro-1H-pyrido[3,4-b][1,4]oxazin-6-yl]-3-(6-fluoro-4-methoxy-1H-1,3-benzodiazol-2-yl)-5-(3-fluorophenyl)pyridin-2-amine]
hSSTR2 vs. hSSTR4; Table C
  hSST4/hSST2 (ratio): c (c = between 2.5 and 15;)
[1]
  EC50: 0.1 to 1 nM

## CNc1ncc(-c2cccc(F)c2)c(N2CC[C@@H]3NCCO[C@H]3C2)c1-c1nc2c(OC)cc(F)cc2[nH]1 [Compound 3-10, 4-[(4αS,8αS)-octahydro-1H-pyrido[3,4-b][1,4]oxazin-6-yl]-3-(6-fluoro-4-methoxy-1H-1,3-benzodiazol-2-yl)-5-(3-fluorophenyl)-N-methylpyridin-2-amine]
hSSTR2 vs. hSSTR4; Table C
  hSST4/hSST2 (ratio): a (a = above 50,)
[1]
  EC50: 0.1 to 1 nM

## CNc1ncc(-c2cccc(F)c2)c(N2CC[C@@H]3NCCO[C@H]3C2)c1-c1nc2c(OC)cc(C#N)cc2[nH]1 [Compound 3-12, 2-{4-[(4αS,8αS)-octahydro-1H-pyrido[3,4-b][1,4]oxazin-6-yl]-5-(3-fluorophenyl)-2-(methylamino)pyridin-3-yl}-4-methoxy-1H-1,3-benzodiazole-6-carbonitrile]
hSSTR2 vs. hSSTR4; Table C
  hSST4/hSST2 (ratio): a (a = above 50,)
[1]
  EC50: ≥ 1 nM

## CNc1ncc(-c2cc(F)cc(Cl)c2)c(N2CC[C@@H]3NCCO[C@H]3C2)c1-c1nc2c(OC)cc(F)cc2[nH]1 [Compound 3-13, 4-[(4αS,8αS)-octahydro-1H-pyrido[3,4-b][1,4]oxazin-6-yl]-5-(3-chloro-5-fluorophenyl)-3-(6-fluoro-4-methoxy-1H-1,3-benzodiazol-2-yl)-N-methylpyridin-2-amine]
hSSTR2 vs. hSSTR4; Table C
  hSST4/hSST2 (ratio): a (a = above 50,)
[1]
  EC50: 0.1 to 1 nM

## COc1cc(F)cc2[nH]c(-c3c(N)ncc(-c4cc(C)cc(F)c4)c3N3CC[C@@H]4NCCO[C@H]4C3)nc12 [Compound 3-14, 4-[(4αS, 8αS)-octahydro-1H-pyrido[3,4-b][1,4]oxazin-6-yl]-3-(6-fluoro-4-methoxy-1H-1,3-benzodiazol-2-yl)-5-(3-fluoro-5-methylphenyl)pyridin-2-amine]
[1]
  EC50: < 0.1 nM

## CNc1ncc(-c2cc(C)cc(F)c2)c(N2CCC3OCCNC3C2)c1-c1nc2c(OC)cc(F)cc2[nH]1 (centres unmarked) [Compound 3-15, 4-[(4αS,8αS)-octahydro-1H-pyrido[3,4-b][1,4]oxazin-6-yl]-3-(6-fluoro-4-methoxy-1H-1,3-benzodiazol-2-yl)-5-(3-fluoro-5-methylphenyl)-N-methylpyridin-2-amine]
[1]
  EC50: < 0.1 nM

## COc1cc(C#N)cc2[nH]c(-c3c(N)ncc(-c4cc(C)cc(F)c4)c3N3CC[C@@H]4NCCO[C@H]4C3)nc12 [Compound 3-16, 2-{4-[(4αS,8αS)-octahydro-1H-pyrido[3,4-b][1,4]oxazin-6-yl]-2-amino-5-(3-fluoro-5-methylphenyl)pyridin-3-yl}-4-methoxy-1H-1,3-benzodiazole-6-carbonitrile]
[1]
  EC50: < 0.1 nM

## COc1cc(F)cc2[nH]c(-c3c(N)ncc(-c4cc(F)cc(Cl)c4)c3N3CC[C@@H]4OCCN[C@H]4C3)nc12 [Compound 3-17, 4-[(4αS,8αS)-octahydro-1H-pyrido[3,4-b][1,4]oxazin-6-yl]-5-(3-chloro-5-fluorophenyl)-3-(6-fluoro-4-methoxy-1H-1,3-benzodiazol-2-yl)pyridin-2-amine]
hSSTR2 vs. hSSTR4; Table C
  hSST4/hSST2 (ratio): c (c = between 2.5 and 15;)
[1]
  EC50: < 0.1 nM
